Experiments:
Assay type in all cases: functional
HOP-92 = test: Growth inhibition of human HOP92 cells assessed as cell growth at 10^-6 M incubated for 48 hrs by sulforhodamine B assay relative to control; settings: HOP-92, 48 h, read-out: Activity
SNB-19 = test: Growth inhibition of human SNB19 cells assessed as cell growth at 10^-8 M incubated for 48 hrs by sulforhodamine B assay relative to control; settings: SNB-19, 48 h, read-out: Activity
MDA-MB-231 = test: Growth inhibition of human MDA-MB-231 cells assessed as cell growth at 10^-6 M incubated for 48 hrs by sulforhodamine B assay relative to control; settings: MDA-MB-231, 48 h, read-out: Activity
HCC 2998 = test: Growth inhibition of human HCC2998 cells assessed as cell growth at 10^-8 M incubated for 48 hrs by sulforhodamine B assay relative to control; settings: HCC 2998, 48 h, read-out: Activity
HT-29 = test: Growth inhibition of human HT-29 cells assessed as cell growth at 10^-7 M incubated for 48 hrs by sulforhodamine B assay relative to control; settings: HT-29, 48 h, read-out: Activity
SF-539 [1] = test: Growth inhibition of human SF539 cells assessed as cell growth at 10^-6 M incubated for 48 hrs by sulforhodamine B assay relative to control; settings: SF-539, 48 h, read-out: Activity
SW-620 = test: Growth inhibition of human SW620 cells assessed as cell growth at 10^-8 M incubated for 48 hrs by sulforhodamine B assay relative to control; settings: SW-620, 48 h, read-out: Activity
SK-MEL-2 = test: Growth inhibition of human SK-MEL-2 cells assessed as cell growth at 10^-7 M incubated for 48 hrs by sulforhodamine B assay relative to control; settings: SK-MEL-2, 48 h, read-out: Activity
NCI-H322M = test: Growth inhibition of human NCI-H322M cells assessed as cell growth at 10^-8 M incubated for 48 hrs by sulforhodamine B assay relative to control; settings: read-out: Activity
CCRF-CEM = test: Growth inhibition of human CCRF-CEM cells assessed as cell growth at 10^-6 M incubated for 48 hrs by sulforhodamine B assay relative to control; settings: read-out: Activity
SF-539 [2] = test: Growth inhibition of human SF539 cells assessed as cell growth at 10^-8 M incubated for 48 hrs by sulforhodamine B assay relative to control; settings: SF-539, 48 h, read-out: Activity
SNB-75 = test: Growth inhibition of human SNB75 cells assessed as cell growth at 10^-8 M incubated for 48 hrs by sulforhodamine B assay relative to control; settings: SNB-75, 48 h, read-out: Activity
KM12 = test: Cytotoxicity against human KM12 cells after 48 hrs by SRB assay; settings: KM12, 48 h
HL-60(TB) = test: Growth inhibition of human HL-60(TB) cells assessed as cell growth at 10^-8 M incubated for 48 hrs by sulforhodamine B assay relative to control; settings: HL-60, 48 h, read-out: Activity
T47D = test: Growth inhibition of human T47D cells assessed as cell growth at 10^-7 M incubated for 48 hrs by sulforhodamine B assay relative to control; settings: read-out: Activity
OVCAR-5 = test: Cytotoxicity against human OVCAR5 cells after 48 hrs by SRB assay; settings: OVCAR-5, 48 h
M14 = test: Growth inhibition of human M14 cells assessed as cell growth at 10^-7 M incubated for 48 hrs by sulforhodamine B assay relative to control; settings: M14, 48 h, read-out: Activity
LOX IMVI = test: Growth inhibition of human LOXIMVI cells assessed as cell growth at 10^-8 M incubated for 48 hrs by sulforhodamine B assay relative to control; settings: read-out: Activity
A549 = test: Cytotoxicity against human A549 cells after 48 hrs by SRB assay; settings: A549, 48 h
IGROV-1 = test: Growth inhibition of human IGROV1 cells assessed as cell growth at 10^-7 M incubated for 48 hrs by sulforhodamine B assay relative to control; settings: IGROV-1, 48 h, read-out: Activity
NCI-H522 = test: Cytotoxicity against human NCI-H522 cells after 48 hrs by SRB assay; settings: NCI-H522, 48 h
OVCAR-3 = test: Cytotoxicity against human OVCAR3 cells after 48 hrs by SRB assay; settings: OVCAR-3, 48 h
[3] = read-out: LC50 (the source's name)
[4] = read-out: pLC50 (the source's name) (converted)

With `C#C[C@@]1(O)[C@@H](CO)O[C@@H](n2cc(Cl)c3c(N)ncnc32)[C@@H]1O` the growth at 1 µM (HOP-92) was 27 to 31%, the growth at 0.01 µM (SNB-19) was 68 to 94% and the growth at 1 µM (MDA-MB-231) was -4%. The growth at 0.01 µM (HCC 2998) was 92 to 99%, the growth at 0.1 µM (HT-29) was 18 to 38% and the growth at 1 µM (SF-539 [1]) was 6 to 10%. For the same compound, the growth at 0.01 µM (SW-620) was 88 to 91%, the growth at 0.1 µM (SK-MEL-2) was 47 to 66% and the growth at 0.01 µM (NCI-H322M) was 93 to 100%. It also gave a growth at 1 µM (CCRF-CEM) of 7%, a growth at 0.01 µM (SF-539 [2]) of 88 to 92% and a growth at 0.01 µM (SNB-75) of 84%. It also gave a GI50 (KM12; read-out: GI50) of 126 to 161 nM, a CC50 (KM12; [3]) of over 100000 nM and a TGI (KM12; read-out: TGI) of over 100000 nM. It also gave a TGI (KM12; read-out: pTGI (converted)) of over 100000 nM, a growth at 0.01 µM (HL-60(TB)) of 83 to 85% and a growth at 0.1 µM (T47D) of 31 to 50%. The GI50 (OVCAR-5; read-out: GI50) was 280 to 644 nM, the CC50 (OVCAR-5; [3]) was over 100000 nM and the TGI (OVCAR-5; read-out: TGI) was 70800 to 100000 nM. It also gave a growth at 0.1 µM (M14) of 69 to 79%, a growth at 0.01 µM (LOX IMVI) of 70 to 84% and a GI50 (A549; read-out: GI50) of 138 to 237 nM. The CC50 (A549; [4]) was over 100000 nM, the growth at 0.1 µM (IGROV-1) was 57 to 65% and the GI50 (NCI-H522; read-out: GI50) was 81.6 to 134 nM. The TGI (NCI-H522; read-out: TGI) was 276 to 455 nM, the CC50 (NCI-H522; [4]) was over 100000 nM and the GI50 (OVCAR-3; read-out: GI50) was 228 to 237 nM. The TGI (OVCAR-3; read-out: TGI) was 1600 to 2010 nM and the CC50 (OVCAR-3; [4]) was over 100000 nM.

Reference: ChEMBL document CHEMBL4270599, “Synthesis of a 3'-C-ethynyl-β-d-ribofuranose purine nucleoside library: Discovery of C7-deazapurine analogs as potent antiproliferative nucleosides” (Eur J Med Chem, 2018)
